# Experimental data reported in patent publication US6710090B2, “Inhibitory or blocking agents of molecular generating and/or inducing functions” (priority 1994, dated 2004).
# How the values were obtained:
# [1] = Stability of solution under light; format: physicochemical; settings: sealed glass tube, stocked under room light, 6 months after the synthesis
# Excerpt: <Stability of Solution Under Light>
# [2] = tested on: synthesized dimers SEQ ID NO: 1 and SEQ ID NO: 2; test: Molecular weight of new synthesized dimers with seven base pair, electrophoresis; format: biochemical; settings: 2 μl dimer solution with 2 μl of Yoshixol, 20% gel electrophoresis
# Procedure: DNA or RNA synthesis device (392-25 type, Perkin-Elmer Co.) was used and 7 base alignment (CTTCGGA) and (CTTCGGG) new synthesis dimer (SEQ ID NO: 1) (5′>CTTCGGACTTCGGA<3′) and (SEQ ID NO: 2) (5′>CTTCGGGCTTCGGG<3′) were synthesized. Then, an effect of Yoshixol on a change in molecular weight of the dimer was investigated. This pellet was dissolved on 50 μl of tris EDTA, and OD260 was measurement by 100 times attenuation so that concentration was turned into equality (5 ng/μl) by tris EDTA and distilled water. And, 4 μl of an adjusted synthesis dimer was labeled at 5′-terminal end of the dimer with 4 μl of ATP which was labeled by P32. In addition, after processing the dimer with 1 μl of polynucleokinase (TaKaRa, Tokyo) for 30 minutes by 37° C., the solution was heated at 70° C. for 5 minutes. Afterward, 65 μl of tris EDTA, 1 μl of glycogen and 190 μl of chilled ethanol were added and were mixed. And, it was centrifuged over 10 minute by 16,000 cpm. After taking the supernatant out, the pellet was made dry. Again, it was dissolved by 50 μl of tris EDTA and, 1 μl of the solution with radioactivity was mixed with urea (15 g), acrylamide (5.7 g), bisacrylamide (0.3 g), tris boric acid EDTA (3 ml), 10% ammoniumpersulfate (0.1 ml) and N, N, N, N-tetramethyldiamine (15 μl) to distilled water, so that the volume was made to 30 ml in total. […]
# human fibrinogen = molecular target: T1, human fibrinogen (Homo sapiens, UniProt P02671+P02675+P02679); test: Composition of amino acids in fibrinogen; format: biochemical; settings: Yoshixol 4 μl
# T1 sequence (P02671 20-629 limits assumed): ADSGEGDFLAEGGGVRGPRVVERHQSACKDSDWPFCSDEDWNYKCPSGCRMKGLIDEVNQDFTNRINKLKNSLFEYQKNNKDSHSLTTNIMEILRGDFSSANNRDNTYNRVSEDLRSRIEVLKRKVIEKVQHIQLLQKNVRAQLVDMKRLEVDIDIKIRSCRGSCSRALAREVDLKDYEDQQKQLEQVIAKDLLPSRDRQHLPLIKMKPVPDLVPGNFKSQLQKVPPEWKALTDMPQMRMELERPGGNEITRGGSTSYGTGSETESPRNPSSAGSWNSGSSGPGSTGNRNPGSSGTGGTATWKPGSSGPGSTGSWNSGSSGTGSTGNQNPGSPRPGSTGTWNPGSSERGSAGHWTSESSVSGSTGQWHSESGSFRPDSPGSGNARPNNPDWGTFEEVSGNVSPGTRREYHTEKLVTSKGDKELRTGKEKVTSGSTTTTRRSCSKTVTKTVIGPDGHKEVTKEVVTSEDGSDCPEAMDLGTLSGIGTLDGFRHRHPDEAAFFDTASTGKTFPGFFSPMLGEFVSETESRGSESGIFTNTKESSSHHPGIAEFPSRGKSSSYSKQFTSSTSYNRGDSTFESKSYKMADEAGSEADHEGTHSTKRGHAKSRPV
# T1 sequence (P02675 31-491): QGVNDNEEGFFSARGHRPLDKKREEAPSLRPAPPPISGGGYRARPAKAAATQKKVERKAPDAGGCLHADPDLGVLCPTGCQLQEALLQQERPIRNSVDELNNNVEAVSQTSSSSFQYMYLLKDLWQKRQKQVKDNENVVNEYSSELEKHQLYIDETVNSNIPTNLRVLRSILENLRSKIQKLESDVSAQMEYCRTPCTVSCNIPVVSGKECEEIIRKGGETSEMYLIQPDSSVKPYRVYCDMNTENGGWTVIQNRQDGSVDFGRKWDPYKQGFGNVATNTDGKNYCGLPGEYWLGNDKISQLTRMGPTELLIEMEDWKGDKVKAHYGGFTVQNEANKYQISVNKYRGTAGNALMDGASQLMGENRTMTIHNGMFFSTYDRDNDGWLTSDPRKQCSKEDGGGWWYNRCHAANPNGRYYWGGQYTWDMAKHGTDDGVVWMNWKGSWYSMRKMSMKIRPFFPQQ
# T1 sequence (P02679 27-433 limits assumed): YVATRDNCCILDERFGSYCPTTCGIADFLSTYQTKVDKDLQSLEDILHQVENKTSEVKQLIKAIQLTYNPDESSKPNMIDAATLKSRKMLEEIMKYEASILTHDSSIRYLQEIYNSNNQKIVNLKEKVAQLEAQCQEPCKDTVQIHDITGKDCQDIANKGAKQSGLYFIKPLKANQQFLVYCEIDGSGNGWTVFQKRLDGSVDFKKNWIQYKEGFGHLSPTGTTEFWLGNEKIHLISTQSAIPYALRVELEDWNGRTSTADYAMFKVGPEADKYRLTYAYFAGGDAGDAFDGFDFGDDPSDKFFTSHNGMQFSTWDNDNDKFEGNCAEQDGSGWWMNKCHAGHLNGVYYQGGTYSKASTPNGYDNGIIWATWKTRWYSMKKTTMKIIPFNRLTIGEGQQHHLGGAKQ
# Procedure: Changes in composition of amino acids were analyzed by use of 1 ml of human blood serum, 1 ml of human fibrinogen (concentration of 160 mg/dl), 1 ml of human thrombin before and after treatment with Yoshixol (4 μl). The total amino acids in the human blood serum which was treated with Yoshixol decreased by 41%. And, ratio of each composition was altered after the treatment so that as an example the concentration of phosphoserine increased about 20 times which level was from 7.2 picomole to 164.8 picomole.
# trypsin = test: Function and configuration of trypsin, electrophoresis; format: biochemical; settings: after treatment with Yoshixol 4 μl
# Procedure: Each physiological effect of trypsin (Wakou Jyunyaku Ltd.) and thrombin (Behlinger Manheim-Yamanouchi Co.) was investigated by electrophoresis. When trypsin was added to bovine albumin (Sigma Co. Saint Louis, Mo., USA) or myoglobin (Sigma Co. Saint Louis, Mo., USA), each primary structure of proteins which consist of albumin was altered by proteolytic action of trypsin. In addition, when thrombin was added to human fibrinogen (Behlinger Manheim-Yamanouchi Co.), a primary structure of proteins which consists of fibrinogen was not found.
structure (smiles),measurement,setting,value
"C=C1CC(C)(C)C=CC1=O [Yoshixol, 4,4-dimethyl-6-methylene-2-cyclohexen-1-one]","Changes in coloring, viscosity and odor",[1],did not change
same,change in molecular weight of the synthesized dimers versus without treatment,[2],did not differ
same,concentration of the total amino acids in fibrinogen,human fibrinogen; 1 ml human fibrinogen 160 mg/dl,did not change
same,increase of concentration of cystathione in fibrinogen,human fibrinogen,more than 5 times
same,glutamic acid and hydroxyl serine in fibrinogen,human fibrinogen; existed before treatment,disappeared
same,"physiological function of trypsin to bovine albumin, myoglobin",trypsin,did not occur
same,primary structure of trypsin (electrophoresis),trypsin,did not show any electrophoretic changes
